Measured values as given in patent US20150274719A1, “AMINO-SUBSTITUTED IMIDAZO[1,2-A]PYRIDINECARBOXAMIDES AND THEIR USE” (BAYER PHARMA AKTIENGESELLSCHAFT, priority 2012, published 2015).
Counter-ions that a name gives are not always drawn.

Target: T1, recombinant guanylate cyclase reporter cell line (Rattus norvegicus, UniProt P19686+P20595)
T1 construct: expressed in transfected cells; host or cells: recombinant reporter cell line
T1 sequence (P19686 1-690): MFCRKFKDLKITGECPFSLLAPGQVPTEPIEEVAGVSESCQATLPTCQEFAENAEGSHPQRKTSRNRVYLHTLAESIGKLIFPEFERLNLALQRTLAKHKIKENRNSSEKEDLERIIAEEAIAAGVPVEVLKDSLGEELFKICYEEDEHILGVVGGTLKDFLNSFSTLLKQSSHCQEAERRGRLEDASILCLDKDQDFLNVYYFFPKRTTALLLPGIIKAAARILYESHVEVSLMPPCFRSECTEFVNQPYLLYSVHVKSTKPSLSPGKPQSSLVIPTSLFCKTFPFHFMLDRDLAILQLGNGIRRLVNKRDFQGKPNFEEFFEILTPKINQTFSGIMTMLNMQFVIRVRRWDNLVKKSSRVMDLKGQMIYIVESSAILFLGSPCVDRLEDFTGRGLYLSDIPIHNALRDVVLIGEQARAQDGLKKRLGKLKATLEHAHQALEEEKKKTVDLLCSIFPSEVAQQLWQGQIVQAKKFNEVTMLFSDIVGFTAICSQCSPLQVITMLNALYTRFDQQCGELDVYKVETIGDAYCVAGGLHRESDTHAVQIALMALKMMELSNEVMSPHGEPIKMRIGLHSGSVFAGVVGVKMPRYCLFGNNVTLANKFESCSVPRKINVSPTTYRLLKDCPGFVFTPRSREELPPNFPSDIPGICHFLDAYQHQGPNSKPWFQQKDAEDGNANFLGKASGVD
T1 sequence (P20595 1-619): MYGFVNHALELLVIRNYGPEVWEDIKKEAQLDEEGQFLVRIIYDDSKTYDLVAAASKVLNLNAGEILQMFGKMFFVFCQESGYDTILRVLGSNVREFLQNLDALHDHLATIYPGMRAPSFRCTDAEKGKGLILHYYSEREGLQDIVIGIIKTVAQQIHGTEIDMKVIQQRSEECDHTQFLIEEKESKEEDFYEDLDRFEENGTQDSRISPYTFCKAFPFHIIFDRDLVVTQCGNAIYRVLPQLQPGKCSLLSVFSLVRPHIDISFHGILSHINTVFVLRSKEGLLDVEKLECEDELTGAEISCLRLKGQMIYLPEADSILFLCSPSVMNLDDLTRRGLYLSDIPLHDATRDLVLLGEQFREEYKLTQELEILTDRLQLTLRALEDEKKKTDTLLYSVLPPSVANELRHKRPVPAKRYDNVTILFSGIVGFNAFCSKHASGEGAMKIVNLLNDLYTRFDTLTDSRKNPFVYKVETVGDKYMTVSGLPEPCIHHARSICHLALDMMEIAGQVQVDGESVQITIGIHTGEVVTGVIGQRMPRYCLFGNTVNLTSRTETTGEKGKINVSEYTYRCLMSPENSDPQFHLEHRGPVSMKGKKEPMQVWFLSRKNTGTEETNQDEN
Assay: Action on recombinant guanylate cyclase reporter cell line
Assay type: cell-based
Conditions: in some cases mean values from individual determinations
Protocol: B-2. Action on Recombinant Guanylate Cyclase Reporter Cell Line
The cellular action of the compounds according to the invention is determined on a recombinant guanylate cyclase reporter cell line, as described in F. Wunder et al., Anal. Biochem. 339, 104-112 (2005).
Representative MEC values (MEC=minimal effective concentration) for the compounds according to the invention are shown in the following table (in some cases as mean values obtained from individual determinations): […]

| Compound | MEC (minimal effective concentration) [µM] |
| --- | --- |
| Cc1cc(OCc2c(F)cccc2F)c2nc(C)c(C(=O)NCC(C)(N)Cc3ccc(F)cc3)n2c1 (racemic) [Example 296, rac-N-[2-amino-3-(4-fluorophenyl)-2-methylpropyl]-8-[(2,6-difluorobenzyl)oxy]-2,6-dimethylimidazo[1,2-a]pyridine-3-carboxamide] | 0.10 |
| Cc1nc2c(OCc3c(F)cccc3F)cccn2c1C(=O)NC(CN1CCOCC1)c1ccccc1 (racemic) [Example 134, rac-8-[(2,6-difluorobenzyl)oxy]-2-methyl-N-[2-(morpholin-4-yl)-1-phenylethyl]imidazo[1,2-a]-pyridine-3-carboxamide] | 3.00 |
| COc1ccc(F)c(COc2cc(C)cn3c(C(=O)NCC(C)(N)CF)c(C)nc23)c1F (stereo not drawn) [Example 361, ent-N-(2-amino-3-fluoro-2-methylpropyl)-8-[(2,6-difluoro-3-methoxybenzyl)oxy]-2,6-dimethylimidazo[1,2-a]pyridine-3-carboxamide] | 1.00 |
| Cc1cc(OCc2c(F)cccc2F)c2nc(C)c(C(=O)NCC3CNCCO3)n2c1 (racemic) [Example 345, rac-8-[(2,6-Difluorobenzyl)oxy]-2,6-dimethyl-N-(morpholin-2-ylmethyl)imidazo[1,2-a]pyridine-3-carboxamide] | 1.00 |
| Cc1nc2c(OCc3c(F)cccc3F)cc(Cl)cn2c1C(=O)NCC(C)(N)CC(C)C (racemic) [Example 225, rac-N-(2-Amino-2,4-dimethylpentyl)-6-chloro-8-[(2,6-difluorobenzyl)oxy]-2-methylimidazo[1,2-a]pyridine-3-carboxamide] | 0.30 |
| Cc1cc(OCc2c(F)cccc2F)c2nc(C)c(C(=O)NC3CC(N)C3)n2c1 (mixture of isomers) [Example 334, N-(3-aminocyclobutyl)-8-[(2,6-difluorobenzyl)oxy]-2,6-dimethylimidazo[1,2-a]pyridine-3-carboxamide (cis/trans mixture)] | 1.00 |
| Cc1nc2c(OCc3c(F)cccc3F)cc(Cl)cn2c1C(=O)NCC(C)N (single isomer, unassigned) [Example 29, ent-N-(2-Aminopropyl)-6-chloro-8-[(2,6-difluorobenzyl)oxy]-2-methylimidazo[1,2-a]pyridine-3-carboxamide] | 0.20 |
| Cc1nc2c(OCc3c(F)cccc3F)cc(Cl)cn2c1C(=O)NCC(C)(C)N1CCCC1 [Example 148, 6-chloro-8-[(2,6-difluorobenzyl)oxy]-2-methyl-N-[2-methyl-2-(pyrrolidin-1-yl)-propyl]imidazo[1,2-a]pyridine-3-carboxamide] | 1.00 |
| CCCC(C)(N)CNC(=O)c1c(C)nc2c(OCc3c(F)ccc(F)c3F)cc(C)cn12 (racemic) [Example 293, rac-N-(2-amino-2-methylpentyl)-2,6-dimethyl-8-[(2,3,6-trifluorobenzyl)oxy]imidazo[1,2-a]pyridine-3-carboxamide] | 0.03 |
| Cc1cc(OCc2c(F)cccc2F)c2nc(C)c(C(=O)NC3CNc4ccccc4C3)n2c1 (racemic) [Example 76, rac-8-[(2,6-difluorobenzyl)oxy]-2,6-dimethyl-N-(1,2,3,4-tetrahydroquinolin-3-yl)imidazo[1,2-a]-pyridine-3-carboxamide] | 0.30 |
| Cc1cc(OCc2c(F)cccc2F)c2nc(C)c(C(=O)NCC3(N)CCC3)n2c1 [Example 165, N-[(1-aminocyclobutyl)methyl]-8-[(2,6-difluorobenzyl)oxy]-2,6-dimethylimidazo[1,2-a]-pyridine-3-carboxamide] | 0.10 |
| Cc1cc(OCc2c(F)cccc2F)c2nc(C)c(C(=O)NC3CC(C)Nc4ccc(C(F)(F)F)nc43)n2c1 (single isomer, unassigned; ent-8) [Example 326, ent-8-[(2,6-Difluorobenzyl)oxy]-2,6-dimethyl-N-[2-methyl-6-(trifluoromethyl)-1,2,3,4-tetrahydro-1,5-naphthyridin-4-yl]imidazo[1,2-a]pyridine-3-carboxamide] | 0.30 |
| Cc1cc(OCc2c(F)cccc2F)c2nc(C)c(C(=O)NC(CN)c3ccc(F)c(F)c3)n2c1 (stereo not drawn) [Example 51, ent-N-[2-Amino-1-(3,4-difluorophenyl)ethyl]-8-[(2,6-difluorobenzyl)oxy]-2,6-dimethylimidazo-[1,2-a]pyridine-3-carboxamide] | 0.20 |
| NCC(NC(=O)c1cnc2c(OCc3c(F)cccc3F)cccn12)c1ccc(F)c(F)c1 (stereo not drawn) [Example 55, ent-N-[2-amino-1-(3,4-difluorophenyl)ethyl]-8-[(2,6-difluorobenzyl)oxy]imidazo[1,2-a]pyridine-3-carboxamide dihydrochloride] | 2.00 |
| Cc1nc2c(OCc3c(F)cccc3F)cccn2c1C(=O)NCC1(N)CC1 [Example 38, N-[(1-aminocyclopropyl)methyl]-8-[(2,6-difluorobenzyl)oxy]-2-methylimidazo[1,2-a]-pyridine-3-carboxamide] | 0.40 |
| Cc1nc2c(OCc3c(F)cccc3F)cccn2c1C(=O)NC(CN)COc1ccc(F)c(F)c1 (stereo not drawn) [Example 124, ent-N-[1-Amino-3-(3,4-difluorophenoxyl)propan-2-yl]-8-[(2,6-difluorobenzyl)oxy]-2-methyl-imidazo[1,2-a]pyridine-3-carboxamide ditrifluoroacetate] | 1.00 |
| Cc1nc2c(OCc3c(F)cccc3F)cccn2c1C(=O)NC(CN)c1ccc(F)cc1F (stereo not drawn) [Example 21, ent-N-[2-Amino-1-(2,4-difluorophenyl)ethyl]-8-[(2,6-difluorobenzyl)oxy]-2-methylimidazo[1,2-a]-pyridine-3-carboxamide] | 0.30 |
| Cc1nc2c(OCc3c(F)cccc3F)cccn2c1C(=O)NCCCN(C)C [Example 87, 8-[(2,6-difluorobenzyl)oxy]-N-[3-(dimethyl-amino)propyl]-2-methylimidazo[1,2-a]-pyridine-3-carboxamide] | 1.00 |
| CCCC(C)(N)CNC(=O)c1c(C)nc2c(OCc3c(F)c(F)cc(F)c3F)cc(C)cn12 (racemic) [Example 311, rac-N-(2-amino-2-methylpentyl)-2,6-dimethyl-8-[(2,3,5,6-tetrafluorobenzyl)oxy]imidazo[1,2-a]pyridine-3-carboxamide] | 0.30 |
| Cc1nc2c(OCc3c(F)cccc3F)cc(Cl)cn2c1C(=O)NCCN1CCN(C(C)C)CC1 [Example 152, 6-chloro-8-[(2,6-difluorobenzyl)oxy]-N-[2-(4-isopropylpiperazin-1-yl)ethyl]-2-methyl-imidazo[1,2-a]pyridine-3-carboxamide] | 1.00 |
| Cc1cc(OCc2c(F)cccc2F)c2nc(C)c(C(=O)NC[C@H]3CCCN3)n2c1 [Example 116, 8-[(2,6-difluorobenzyl)oxy]-2,6-dimethyl-N-[(2R)-pyrrolidin-2-ylmethyl]imidazo[1,2-a]-pyridine-3-carboxamide] | 3.00 |
| Cc1nc2c(OCc3c(F)cccc3F)cc(Cl)cn2c1C(=O)NCC(N)CC(F)(F)F (racemic) [Example 147, rac-N-(2-amino-4,4,4-trifluorobutyl)-6-chloro-8-[(2,6-difluorobenzyl)oxy]-2-methylimidazo[1,2-a]pyridine-3-carboxamide] | 0.30 |
